# Activity calls are given as the source filed them.
# Key:
# cells [1] = assay type: functional, cell-based
# Streptokinase A = target: T1, Streptokinase A (Streptococcus pyogenes serotype M1, UniProt P10520); experiment: viability-normalized secreted streptokinase activity reduction – plasminogen activation absorbance, OD405, dose response (AID 1914); assay type: functional, Streptococcus pyogenes M1 GAS;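 further: secreted streptokinase activity via plasminogen activation per viability signal from cell pellet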
# T1 sequence (P10520 whole entry): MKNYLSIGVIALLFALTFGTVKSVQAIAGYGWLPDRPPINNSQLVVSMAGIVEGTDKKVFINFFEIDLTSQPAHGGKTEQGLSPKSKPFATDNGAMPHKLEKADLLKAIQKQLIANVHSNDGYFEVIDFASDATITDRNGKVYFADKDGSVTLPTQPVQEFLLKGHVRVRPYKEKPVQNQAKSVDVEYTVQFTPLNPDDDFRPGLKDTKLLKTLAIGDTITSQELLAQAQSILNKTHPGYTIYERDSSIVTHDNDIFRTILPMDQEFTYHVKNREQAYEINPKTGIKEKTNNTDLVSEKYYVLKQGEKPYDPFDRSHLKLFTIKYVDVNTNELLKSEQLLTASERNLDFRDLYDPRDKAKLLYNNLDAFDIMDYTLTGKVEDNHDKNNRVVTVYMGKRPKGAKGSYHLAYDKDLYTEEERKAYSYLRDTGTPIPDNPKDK
# cells [2] = assay type: functional, cell-based; remark: listed apart in the source
# Streptococcus = experiment: GAS UMAA2166 growth inhibition – luminescence, BacTiterGlo, counter-screen for streptokinase expression inhibitor project, dose response (AID 1915); assay type: functional, organism-based;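 further: potency for reduction of bacterial viability or growth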
# [3] = target: T2, Small ubiquitin-related modifier 1 (Homo sapiens, UniProt P63165); experiment: SUMO1 protein interaction blockers, potency – biochemical, fluorescence polarization, uHTS hits, dose response (AID 624382); assay type: functional; conditions: read-out: IC50_Mean
# T2 sequence (P63165 whole entry): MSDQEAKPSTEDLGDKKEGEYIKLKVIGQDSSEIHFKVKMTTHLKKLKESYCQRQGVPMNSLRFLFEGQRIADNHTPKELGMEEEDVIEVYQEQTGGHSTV
# [4] = target: T2, Small ubiquitin-related modifier 1; experiment: SUMO1 protein-protein binding blockers, potency – biochemical, FRET, dose response (AID 624383); assay type: functional; conditions: read-out: IC50_Mean
# [5] = blockers of CRF-binding protein–CRF-R2 complex – cell-based, uHTS hits, 384-well, dose response (AID 651639); assay type: functional, Homo sapiens; conditions: read-out: IC50_Mean
# SUMO-activating enzyme = SUMO-activating enzyme (Homo sapiens, UniProt Q9UBT2); experiment: blockers of UBC9-mediated SUMO conjugation – biochemical, AlphaScreen, SUMOylation inhibitor project, confirmation (AID 2018); assay type: functional
# Chain of SUMO-activating enzyme (Q9UBE0 whole entry): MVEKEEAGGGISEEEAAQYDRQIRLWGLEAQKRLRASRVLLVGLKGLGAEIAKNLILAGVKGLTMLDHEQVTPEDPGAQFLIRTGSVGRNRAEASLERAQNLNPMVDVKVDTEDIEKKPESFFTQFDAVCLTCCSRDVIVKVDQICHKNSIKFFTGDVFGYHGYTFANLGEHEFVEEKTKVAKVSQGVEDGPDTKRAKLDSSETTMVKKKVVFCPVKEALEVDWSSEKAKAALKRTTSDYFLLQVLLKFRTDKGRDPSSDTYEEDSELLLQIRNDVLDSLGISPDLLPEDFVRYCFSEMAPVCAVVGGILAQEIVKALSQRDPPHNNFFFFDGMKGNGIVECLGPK
# Chain of SUMO-activating enzyme (Q9UBT2 whole entry): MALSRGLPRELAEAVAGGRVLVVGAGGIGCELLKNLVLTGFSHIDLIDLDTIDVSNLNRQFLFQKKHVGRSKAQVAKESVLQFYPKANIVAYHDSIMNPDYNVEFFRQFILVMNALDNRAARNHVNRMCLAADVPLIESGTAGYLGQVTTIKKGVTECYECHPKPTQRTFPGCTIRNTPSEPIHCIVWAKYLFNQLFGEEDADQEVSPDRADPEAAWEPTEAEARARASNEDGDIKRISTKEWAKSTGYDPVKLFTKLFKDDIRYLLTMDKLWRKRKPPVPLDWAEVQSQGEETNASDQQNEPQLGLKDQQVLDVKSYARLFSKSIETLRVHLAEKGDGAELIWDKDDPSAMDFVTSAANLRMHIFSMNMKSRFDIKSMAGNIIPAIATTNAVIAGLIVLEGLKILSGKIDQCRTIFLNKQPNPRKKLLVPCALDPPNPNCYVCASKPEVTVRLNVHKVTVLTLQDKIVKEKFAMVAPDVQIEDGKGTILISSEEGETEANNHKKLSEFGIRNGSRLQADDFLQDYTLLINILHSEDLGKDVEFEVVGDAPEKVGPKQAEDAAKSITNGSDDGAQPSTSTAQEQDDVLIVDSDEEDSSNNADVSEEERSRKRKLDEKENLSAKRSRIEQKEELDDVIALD
# [6] = target: T3, Corticotropin-releasing factor receptor 2/Corticotropin-releasing factor-binding protein (Homo sapiens, UniProt P24387+Q13324); experiment: Dose Response confirmation of uHTS hits for small molecule antagonists of the CRF-binding protein and CRF-R2 receptor complex.; assay type: functional; conditions: read-out: IC50_Mean
# T3 sequence (Q13324 whole entry): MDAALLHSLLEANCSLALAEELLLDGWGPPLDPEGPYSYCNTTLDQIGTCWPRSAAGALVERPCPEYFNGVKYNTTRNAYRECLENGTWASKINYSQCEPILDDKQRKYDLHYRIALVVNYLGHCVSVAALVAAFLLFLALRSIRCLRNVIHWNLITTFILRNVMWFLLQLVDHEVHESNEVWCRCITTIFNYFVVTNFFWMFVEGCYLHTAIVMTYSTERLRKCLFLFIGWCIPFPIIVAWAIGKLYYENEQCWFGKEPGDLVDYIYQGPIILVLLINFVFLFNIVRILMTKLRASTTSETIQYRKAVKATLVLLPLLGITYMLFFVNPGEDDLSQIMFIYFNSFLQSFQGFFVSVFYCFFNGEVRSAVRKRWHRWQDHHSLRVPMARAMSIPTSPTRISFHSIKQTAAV
# T3 sequence (P24387 whole entry): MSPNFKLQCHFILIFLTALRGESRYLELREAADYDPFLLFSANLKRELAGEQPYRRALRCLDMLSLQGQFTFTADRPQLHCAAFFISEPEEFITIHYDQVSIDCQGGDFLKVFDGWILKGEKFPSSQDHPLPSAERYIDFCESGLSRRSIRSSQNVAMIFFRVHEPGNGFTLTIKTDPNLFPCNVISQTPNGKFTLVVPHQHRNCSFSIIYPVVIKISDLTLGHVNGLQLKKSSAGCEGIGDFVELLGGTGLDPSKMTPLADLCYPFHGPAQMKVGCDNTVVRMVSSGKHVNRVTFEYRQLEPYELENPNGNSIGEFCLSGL
# [7] = target: T3, Corticotropin-releasing factor receptor 2/Corticotropin-releasing factor-binding protein; experiment: activators of CRF receptor 2 with binding protein – uHTS hits, confirmation (AID 602473); assay type: functional; conditions: read-out: EC50_Mean
# [8] = target: T4, Replicative DNA helicase DnaB (Mycobacterium tuberculosis, UniProt P9WMR3); experiment: DnaB intein splicing inhibitors, dose response, biochemical, cell-free fluorescence (AID 449749); assay type: functional
# T4 sequence (P9WMR3 whole entry): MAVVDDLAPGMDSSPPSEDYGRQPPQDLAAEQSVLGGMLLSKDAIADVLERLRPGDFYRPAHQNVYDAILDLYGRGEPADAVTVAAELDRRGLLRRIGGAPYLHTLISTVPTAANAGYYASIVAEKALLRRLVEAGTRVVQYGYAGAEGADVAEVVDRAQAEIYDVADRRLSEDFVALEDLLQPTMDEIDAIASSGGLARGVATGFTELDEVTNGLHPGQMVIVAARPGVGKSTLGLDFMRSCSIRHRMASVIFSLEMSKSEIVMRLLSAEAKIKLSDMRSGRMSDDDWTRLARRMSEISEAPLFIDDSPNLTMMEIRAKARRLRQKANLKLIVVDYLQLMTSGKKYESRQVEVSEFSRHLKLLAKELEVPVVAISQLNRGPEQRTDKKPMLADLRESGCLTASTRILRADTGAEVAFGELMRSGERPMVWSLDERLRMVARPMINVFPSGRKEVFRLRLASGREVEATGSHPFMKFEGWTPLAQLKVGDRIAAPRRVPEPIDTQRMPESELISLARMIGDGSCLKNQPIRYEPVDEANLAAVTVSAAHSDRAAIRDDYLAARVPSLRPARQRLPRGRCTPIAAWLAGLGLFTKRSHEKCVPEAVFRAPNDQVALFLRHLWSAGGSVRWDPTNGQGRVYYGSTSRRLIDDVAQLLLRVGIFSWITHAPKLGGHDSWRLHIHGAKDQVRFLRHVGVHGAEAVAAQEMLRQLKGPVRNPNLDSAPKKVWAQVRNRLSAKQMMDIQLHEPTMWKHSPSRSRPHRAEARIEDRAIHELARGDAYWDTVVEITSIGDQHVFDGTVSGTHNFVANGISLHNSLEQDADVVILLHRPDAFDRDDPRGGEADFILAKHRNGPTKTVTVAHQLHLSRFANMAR
# Protein RecA = target: T5, Protein RecA (Mycobacterium tuberculosis, UniProt P9WHJ3); experiment: Fluorescence Cell-Free Homogeneous Dose Retest to Identify Inhibitors of RecA-Intein Splicing Activity. [Related pubchem assays (depositor defined):AID2097, AID2223, AID489010, AID492950]; assay type: functional
# T5 sequence (P9WHJ3 whole entry): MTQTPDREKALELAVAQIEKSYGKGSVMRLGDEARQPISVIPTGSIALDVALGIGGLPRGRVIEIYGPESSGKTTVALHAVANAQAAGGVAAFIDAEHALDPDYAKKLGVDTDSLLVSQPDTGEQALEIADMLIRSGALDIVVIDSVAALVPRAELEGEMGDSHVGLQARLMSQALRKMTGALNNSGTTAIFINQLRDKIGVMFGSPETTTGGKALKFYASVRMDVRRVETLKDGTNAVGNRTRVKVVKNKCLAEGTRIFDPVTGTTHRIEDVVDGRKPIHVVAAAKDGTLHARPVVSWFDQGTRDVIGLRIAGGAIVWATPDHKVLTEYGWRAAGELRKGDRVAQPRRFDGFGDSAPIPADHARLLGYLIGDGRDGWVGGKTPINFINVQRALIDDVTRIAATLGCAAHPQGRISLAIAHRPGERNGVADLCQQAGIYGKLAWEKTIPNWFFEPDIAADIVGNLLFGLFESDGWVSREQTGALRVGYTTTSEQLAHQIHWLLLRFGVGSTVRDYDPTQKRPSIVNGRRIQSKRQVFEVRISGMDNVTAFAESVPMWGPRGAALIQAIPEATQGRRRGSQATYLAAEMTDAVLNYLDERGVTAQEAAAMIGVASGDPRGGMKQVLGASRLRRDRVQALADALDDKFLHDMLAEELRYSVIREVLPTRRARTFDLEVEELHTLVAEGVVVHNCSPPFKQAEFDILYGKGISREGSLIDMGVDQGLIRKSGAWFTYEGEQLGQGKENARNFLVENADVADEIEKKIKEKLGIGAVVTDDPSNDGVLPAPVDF
# [9] = target: T6, Sentrin-specific protease 8 (Homo sapiens, UniProt Q96LD8); assay type: functional
# T6 sequence (Q96LD8 whole entry): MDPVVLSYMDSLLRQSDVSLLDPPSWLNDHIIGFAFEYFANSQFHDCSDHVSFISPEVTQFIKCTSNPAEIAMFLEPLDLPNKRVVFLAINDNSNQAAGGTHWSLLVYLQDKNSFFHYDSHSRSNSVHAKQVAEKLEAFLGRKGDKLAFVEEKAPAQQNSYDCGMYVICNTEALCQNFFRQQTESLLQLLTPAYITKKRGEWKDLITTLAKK
# [10] = target: T6, Sentrin-specific protease 8; assay type: functional; remark: listed apart in the source
# Cytochrome P450 2C9 = Cytochrome P450 2C9 (Homo sapiens, UniProt P11712)
# Chain of Cytochrome P450 2C9 (P11712 whole entry): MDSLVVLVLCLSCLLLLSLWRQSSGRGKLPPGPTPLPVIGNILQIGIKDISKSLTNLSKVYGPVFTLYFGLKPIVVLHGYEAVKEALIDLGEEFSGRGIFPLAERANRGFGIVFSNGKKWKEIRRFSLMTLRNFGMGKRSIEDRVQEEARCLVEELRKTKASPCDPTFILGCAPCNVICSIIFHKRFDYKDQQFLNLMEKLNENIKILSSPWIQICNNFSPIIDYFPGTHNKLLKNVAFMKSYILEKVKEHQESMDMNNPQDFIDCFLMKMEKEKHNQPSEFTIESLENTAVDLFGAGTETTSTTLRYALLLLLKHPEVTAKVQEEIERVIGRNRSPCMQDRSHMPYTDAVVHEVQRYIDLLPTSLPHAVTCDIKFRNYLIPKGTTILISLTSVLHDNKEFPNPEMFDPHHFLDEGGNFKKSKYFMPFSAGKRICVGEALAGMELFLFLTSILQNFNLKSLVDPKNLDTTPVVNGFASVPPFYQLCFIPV
# [11] = target: Induced myeloid leukemia cell differentiation protein Mcl-1 (Homo sapiens, UniProt Q07820); assay type: functional
# Chain of Induced myeloid leukemia cell differentiation protein Mcl-1 (Q07820 whole entry): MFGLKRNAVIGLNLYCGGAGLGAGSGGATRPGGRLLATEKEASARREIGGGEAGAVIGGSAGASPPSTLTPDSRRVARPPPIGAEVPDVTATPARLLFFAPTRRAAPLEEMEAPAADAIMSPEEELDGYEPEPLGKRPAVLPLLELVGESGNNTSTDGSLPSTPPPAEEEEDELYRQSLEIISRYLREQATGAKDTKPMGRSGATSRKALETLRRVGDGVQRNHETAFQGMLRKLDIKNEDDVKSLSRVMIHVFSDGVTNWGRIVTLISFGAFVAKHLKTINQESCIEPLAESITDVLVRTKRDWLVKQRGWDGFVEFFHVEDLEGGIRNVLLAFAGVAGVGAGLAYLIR
# [12] = target: Glucose-6-phosphate 1-dehydrogenase (Homo sapiens, UniProt P11413); experiment: inhibition of Homo sapiens G6PD, dose series – biochemical, fluorescence, selectivity assay for P. falciparum G6PD inhibitor project, dose response (AID 504792); assay type: functional
# Chain of Glucose-6-phosphate 1-dehydrogenase (P11413 whole entry): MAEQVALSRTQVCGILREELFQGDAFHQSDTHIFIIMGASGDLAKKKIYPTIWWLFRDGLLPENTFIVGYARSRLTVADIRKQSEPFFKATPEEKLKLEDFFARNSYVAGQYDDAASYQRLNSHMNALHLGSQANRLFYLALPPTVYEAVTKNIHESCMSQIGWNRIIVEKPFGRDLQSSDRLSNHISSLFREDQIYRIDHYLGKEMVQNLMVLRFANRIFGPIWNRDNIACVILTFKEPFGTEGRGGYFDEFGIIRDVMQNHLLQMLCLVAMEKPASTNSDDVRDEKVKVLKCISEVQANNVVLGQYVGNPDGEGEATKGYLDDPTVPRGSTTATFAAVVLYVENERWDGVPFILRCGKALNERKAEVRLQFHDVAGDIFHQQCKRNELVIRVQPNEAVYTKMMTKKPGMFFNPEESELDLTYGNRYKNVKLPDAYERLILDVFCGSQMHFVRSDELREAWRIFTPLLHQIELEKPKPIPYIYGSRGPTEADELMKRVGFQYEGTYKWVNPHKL
# [13] = target: T7, Rac GTPase-activating protein 1 (Homo sapiens, UniProt Q9H0H5); experiment: blockers of MgcRacGAP-driven Rac1 GTP hydrolysis – biochemical, ADP Hunter fluorescence, primary and confirmatory, confirmation (AID 624330); assay type: functional
# T7 sequence (Q9H0H5 whole entry): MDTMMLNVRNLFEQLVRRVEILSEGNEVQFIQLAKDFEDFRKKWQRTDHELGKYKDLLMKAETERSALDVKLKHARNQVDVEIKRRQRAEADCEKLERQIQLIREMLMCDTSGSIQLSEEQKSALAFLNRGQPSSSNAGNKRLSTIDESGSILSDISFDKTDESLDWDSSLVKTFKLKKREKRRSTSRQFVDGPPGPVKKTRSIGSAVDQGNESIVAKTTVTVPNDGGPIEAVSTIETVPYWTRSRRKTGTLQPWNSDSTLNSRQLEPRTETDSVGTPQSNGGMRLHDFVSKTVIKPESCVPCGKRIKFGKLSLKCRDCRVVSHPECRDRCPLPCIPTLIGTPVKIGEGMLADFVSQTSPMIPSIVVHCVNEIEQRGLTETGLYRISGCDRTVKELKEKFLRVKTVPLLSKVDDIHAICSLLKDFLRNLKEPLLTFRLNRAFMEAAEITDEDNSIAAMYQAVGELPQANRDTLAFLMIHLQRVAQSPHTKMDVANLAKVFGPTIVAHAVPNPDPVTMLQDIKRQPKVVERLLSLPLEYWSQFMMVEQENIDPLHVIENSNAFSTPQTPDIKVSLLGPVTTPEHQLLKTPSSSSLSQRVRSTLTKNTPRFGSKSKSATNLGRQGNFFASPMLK
# [14] = bead-based luminescence quenchers, dual-tagged ARNT – biochemical, AlphaScreen, cherry-pick, artefact control for ARNT-TACC3 interaction inhibitor project, dose response (AID 651705); assay type: functional;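 further: AlphaScreen bead proximity signal that flags compounds interfering with the detection technology; potency reflects signal decrease which marks the compound as an assay artifact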
# [15] = target: SWI/SNF-related matrix-associated actin-dependent regulator of chromatin subfamily A member 2 (Homo sapiens, UniProt P51531); experiment: Luminescence-based cell-based high throughput dose response assay to identify activators of the function of SWI/SNF related, matrix associated, actin dependent regulator of chromatin, subfamily a, member 2 (SMARCA2, BRM).; assay type: functional
# Chain of SWI/SNF-related matrix-associated actin-dependent regulator of chromatin subfamily A member 2 (P51531 whole entry): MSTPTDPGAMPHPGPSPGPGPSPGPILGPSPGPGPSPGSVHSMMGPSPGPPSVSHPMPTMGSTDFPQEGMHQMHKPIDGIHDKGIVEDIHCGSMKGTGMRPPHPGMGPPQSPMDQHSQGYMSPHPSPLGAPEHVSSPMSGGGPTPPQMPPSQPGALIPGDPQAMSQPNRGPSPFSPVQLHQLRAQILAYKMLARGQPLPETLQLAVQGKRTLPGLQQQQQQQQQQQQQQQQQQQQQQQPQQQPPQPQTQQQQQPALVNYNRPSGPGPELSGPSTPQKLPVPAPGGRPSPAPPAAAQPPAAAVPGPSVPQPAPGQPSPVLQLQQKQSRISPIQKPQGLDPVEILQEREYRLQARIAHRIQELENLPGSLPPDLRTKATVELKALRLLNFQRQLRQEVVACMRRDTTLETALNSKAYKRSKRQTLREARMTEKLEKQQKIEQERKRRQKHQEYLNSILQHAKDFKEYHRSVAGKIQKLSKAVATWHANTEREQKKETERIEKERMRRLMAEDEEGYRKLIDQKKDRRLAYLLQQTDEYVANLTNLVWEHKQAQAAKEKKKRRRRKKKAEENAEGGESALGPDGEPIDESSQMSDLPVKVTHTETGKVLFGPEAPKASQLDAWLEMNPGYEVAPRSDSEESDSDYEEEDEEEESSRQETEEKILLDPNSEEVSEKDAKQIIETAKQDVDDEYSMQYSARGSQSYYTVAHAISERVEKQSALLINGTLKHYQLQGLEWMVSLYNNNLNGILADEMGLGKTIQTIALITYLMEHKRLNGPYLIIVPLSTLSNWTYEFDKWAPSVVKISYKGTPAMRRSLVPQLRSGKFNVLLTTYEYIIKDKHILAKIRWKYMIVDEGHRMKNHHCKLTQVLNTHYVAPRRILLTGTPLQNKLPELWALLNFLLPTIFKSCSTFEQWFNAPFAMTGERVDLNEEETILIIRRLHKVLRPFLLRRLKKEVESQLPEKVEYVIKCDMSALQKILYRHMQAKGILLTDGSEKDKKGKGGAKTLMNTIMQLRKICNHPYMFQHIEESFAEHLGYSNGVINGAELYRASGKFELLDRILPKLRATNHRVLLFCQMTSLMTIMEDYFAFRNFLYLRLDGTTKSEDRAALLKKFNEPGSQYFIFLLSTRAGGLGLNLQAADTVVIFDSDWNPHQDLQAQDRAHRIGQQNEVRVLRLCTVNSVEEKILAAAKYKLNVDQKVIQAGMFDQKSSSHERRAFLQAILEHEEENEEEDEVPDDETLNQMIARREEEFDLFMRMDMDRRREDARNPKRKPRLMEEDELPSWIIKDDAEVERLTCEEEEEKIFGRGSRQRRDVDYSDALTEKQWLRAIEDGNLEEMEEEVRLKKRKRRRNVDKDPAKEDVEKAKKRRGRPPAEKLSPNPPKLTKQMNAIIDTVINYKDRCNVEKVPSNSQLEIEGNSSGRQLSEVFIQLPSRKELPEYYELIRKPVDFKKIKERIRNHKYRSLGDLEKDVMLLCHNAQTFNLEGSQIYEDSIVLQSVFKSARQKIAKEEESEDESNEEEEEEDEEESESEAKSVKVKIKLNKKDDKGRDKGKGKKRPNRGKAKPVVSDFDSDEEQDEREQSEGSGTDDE
# [16] = Counterscreen for activators of the function of SWI/SNF related, matrix associated, actin dependent regulator of chromatin, subfamily a, member 2 (SMARCA2, BRM): Luminescence-based cell-based high throughput dose response assay to identify non-selective compounds using the VP16 reporter assay.; assay type: functional
compound,measurement,setting,value
N#C/C(=C\c1ccc(/C=C(/C#N)c2nn(CCO)c(N)c2C#N)cc1)c1nn(CCO)c(N)c1C#N,EC50,cells [1],> 350 µM (not active)
same,EC50,Streptokinase A,> 150 µM (not active)
same,EC50,cells [2],> 350 µM (not active)
same,EC50,Streptococcus,> 150 µM (not active)
same,IC50,[3],> 66.6 µM (inactive)
same,IC50,[4],2.85 µM (active)
COc1ccc(NC(S)=NCc2cccnc2)cc1,EC50,cells [1],> 350 µM (not active)
same,EC50,cells [2],> 350 µM (not active)
same,IC50,[5],17.8 µM (active)
COC(=O)c1nc2n(n1)C(c1ccc([N+](=O)[O-])cc1)C(C(=O)Nc1ccc(Cl)cc1)=C(C)N2 (stereo not drawn),IC50,SUMO-activating enzyme,32.4 µM (active)
same,IC50,[6],17.8 µM (active)
same,EC50,[7],> 53 µM (inactive)
same,IC50,[5],> 20 µM (inactive)
COc1cc(C(c2c(C)[nH][nH]c2=O)c2c(C)[nH][nH]c2=O)ccc1OS(=O)(=O)c1ccc(C)cc1,AC50,[8],0.484 µM (active)
same,EC50,Protein RecA,0.195 µM (active)
same,IC50,[9],20.4 µM (active)
same,IC50,[10],35.4 µM (active)
Cc1nc(-c2c(C(F)(F)F)noc2-c2ccc(O)cc2O)cs1,IC50,[6],22.7 µM (active)
same,EC50,[7],> 53 µM (inactive)
same,IC50,[5],> 20 µM (inactive)
same,AC50,Cytochrome P450 2C9,3.16 µM (inconclusive)
CCOC(=O)c1c(OCC)[nH]c2c1cc(O)c1ccccc12,IC50,[11],0.935 µM (active)
same,IC50,[12],> 80 µM (inactive)
same,AC50,[8],> 380 µM (inconclusive)
same,EC50,Protein RecA,2.64 µM (active)
same,IC50,[13],63.5 µM (active)
same,AC50,[14],93 µM (active)
COc1ccc(C2Nc3ccccc3C(=O)N2c2ccc(C)cc2)cc1COc1ccccn1 (stereo not drawn),EC50,[15],> 91.1 µM (inactive)
same,EC50,[16],> 91.1 µM (inactive)
COc1ccc(CCNC(=O)c2cc3c(=O)n4cccc(C)c4nc3s2)cc1OC,IC50,[3],> 66.6 µM (inactive)
same,IC50,[4],100 µM (inactive)
O=C(Nc1c(-c2ccc(Cl)cc2)n[nH]c1O)c1ccc(Br)cc1,IC50,[9],34.1 µM (active)
same,IC50,[10],48 µM (active)
